Measured values reported in article PMC8479016, “High-throughput screening and evaluation of repurposed drugs targeting the SARS-CoV-2 main protease” (Signal Transduction and Targeted Therapy, 2021).
“And” between values parts separate entries of the source, which are not always exact repeats. Equal values may be shown once. “Also recorded” adds a separate entry of the source. Read-outs that look alike come from different tables or passages of the source.

What was measured:
[1] = target: T1, SARS-CoV-2 M^pro (Severe acute respiratory syndrome coronavirus 2, UniProt P0DTD1); experiment: biochemical; assay type: binding
[2] = target: T1, SARS-CoV-2 M^pro; experiment: biochemical; assay type: biochemical; details: for inhibitory efficacy on the enzymatic activity of M^pro (inhibition rate): 20 μM drug, 1.5 µM M^pro, 10 μM substrate, 3~6 h
[3] = system: SARS-CoV-2; experiment: Antiviral activity assay in infected Vero E6 cells, viral RNA copies by qRT-PCR; assay type: cell-based; details: Vero E6, MOI 0.01, 48 h after infection
[4] = system: SARS-CoV-2; set-up: method as in earlier work; details: cellular experiment; cited from earlier work
[5] = SPR, steady-state affinity model, 25℃, read-out: KD (equilibrium dissociation constant)

CN1CCN(c2ccc(C(=O)Nc3n[nH]c4ccc(Cc5cc(F)cc(F)c5)cc34)c(NC3CCOCC3)c2)CC1 [Entrectinib]
Kd [1, 5]: ≤ 55 µM and 0.68 µM
IC50 ([2]; 200 nM M^pro, 5-fold gradient 0.032-20 µM, 3 h, read-out: IC50): 10.6 µM
inhibitory efficacy on the enzymatic activity of M^pro (inhibition rate) [2]: outstanding inhibitory efficacy
EC50 ([3]; Severe acute respiratory syndrome coronavirus 2, Vero C1008): 0.198 µM

Cc1cccc(C)c1OCC(=O)N[C@@H](Cc1ccccc1)[C@@H](O)C[C@H](Cc1ccccc1)NC(=O)[C@H](C(C)C)N1CCCNC1=O [lopinavir]
inhibitory efficacy on the enzymatic activity of M^pro (inhibition rate) [2]: either no or only weak inhibitory effects

CC(C)(O)CNc1nc(Nc2ccnc(C(F)(F)F)c2)nc(-c2cccc(C(F)(F)F)n2)n1 [Enasidenib]
Kd [1, 5]: ≤ 55 µM and 9.31 µM

CC(C)C[C@H](NC(=O)OCc1ccccc1)C(=O)N[C@@H](CC1CCNC1=O)C(O)S(=O)(=O)O (stereo partly drawn) [GC376]
EC50 [3]: 0.074 µM

C[C@@H]1CCO[C@H]2Cn3cc(C(=O)NCc4ccc(F)cc4F)c(=O)c(O)c3C(=O)N12 [Dolutegravir]
Kd [1, 5]: ≤ 55 µM and 18.1 µM
inhibitory efficacy on the enzymatic activity of M^pro (inhibition rate) [2]: moderate inhibition

Cc1onc(-c2ccccc2Cl)c1C(=O)N[C@@H]1C(=O)N2[C@@H]1SC(C)(C)[C@@H]2C(=O)O [Cloxacillin]
Kd [1, 5]: ≤ 55 µM and 54.6 µM
inhibitory efficacy on the enzymatic activity of M^pro (inhibition rate) [2]: moderate inhibition

CC(C)CN(C[C@@H](O)[C@H](Cc1ccccc1)NC(=O)O[C@H]1CO[C@H]2OCC[C@H]21)S(=O)(=O)c1ccc(N)cc1 [darunavir]
inhibitory efficacy on the enzymatic activity of M^pro (inhibition rate) [2]: either no or only weak inhibitory effects

CC(C)(C)NC(=O)[C@@H]1C[C@@H]2CCCC[C@@H]2CN1C[C@@H](O)[C@H](Cc1ccccc1)NC(=O)[C@H](CC(N)=O)NC(=O)c1ccc2ccccc2n1 [Saquinavir]
Kd [1]: 2.96 ± 2 µM
Kd ([1]; read-out: KD (equilibrium dissociation constant)): ≤ 55 µM

Cc1c(O)cccc1C(=O)N[C@@H](CSc1ccccc1)[C@H](O)CN1C[C@H]2CCCC[C@H]2C[C@H]1C(=O)NC(C)(C)C [nelfinavir]
Kd [1]: 2.36 µM
IC50 [2]: 41.5 µM
inhibitory efficacy on the enzymatic activity of M^pro (inhibition rate) [2]: either no or only weak inhibitory effects; also recorded: failed to block the enzymatic activity
EC50 [4]: 1.13 µM
